Test results as given in BindingDB's records for doi:10.1021/jm0301033 (Florida A and M University, 2004).

Tests used:
[1] = target: T1, D(4) dopamine receptor (Homo sapiens, UniProt P21917); test: Displacement of [3H]spiperone from human Dopamine receptor D4
T1 sequence (P21917 whole entry): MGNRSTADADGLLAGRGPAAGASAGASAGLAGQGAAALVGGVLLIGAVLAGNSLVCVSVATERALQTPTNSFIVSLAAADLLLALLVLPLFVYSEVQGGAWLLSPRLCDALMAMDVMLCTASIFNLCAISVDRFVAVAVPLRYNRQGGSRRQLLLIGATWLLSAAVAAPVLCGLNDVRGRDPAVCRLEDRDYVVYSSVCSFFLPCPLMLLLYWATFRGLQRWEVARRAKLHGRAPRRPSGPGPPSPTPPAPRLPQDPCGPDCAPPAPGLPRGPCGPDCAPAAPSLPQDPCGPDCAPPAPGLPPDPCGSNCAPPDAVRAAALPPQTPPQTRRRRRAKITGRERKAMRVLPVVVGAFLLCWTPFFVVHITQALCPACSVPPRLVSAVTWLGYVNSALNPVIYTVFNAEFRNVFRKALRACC

[2] = target: D(3) dopamine receptor (Homo sapiens, UniProt P35462); test: Displacement of [3H]7-OH-DPAT from human Dopamine receptor D3
Sequence of D(3) dopamine receptor (P35462 as listed by the source): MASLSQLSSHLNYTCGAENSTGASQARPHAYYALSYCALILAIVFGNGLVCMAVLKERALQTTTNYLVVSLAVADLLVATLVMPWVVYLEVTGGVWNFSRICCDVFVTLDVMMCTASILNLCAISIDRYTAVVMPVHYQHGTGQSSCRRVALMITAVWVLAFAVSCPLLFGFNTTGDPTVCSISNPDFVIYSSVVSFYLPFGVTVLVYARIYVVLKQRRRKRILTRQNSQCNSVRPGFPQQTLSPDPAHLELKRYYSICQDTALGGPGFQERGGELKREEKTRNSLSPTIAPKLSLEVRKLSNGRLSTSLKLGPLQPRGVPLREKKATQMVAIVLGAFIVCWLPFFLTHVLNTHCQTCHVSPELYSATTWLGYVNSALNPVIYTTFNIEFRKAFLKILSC

## O=C(CCCN1CCC(CCO)(c2ccc(Cl)cc2)C1)c1ccc(F)cc1 (configuration not stated)
[1]
  pKi: 6.71
[2]
  pKi: 7.49

## O=C(CCCN1CCC(c2ccc(Cl)cc2)C1)c1ccc(F)cc1 (configuration not stated)
[1]
  pKi: 7.82

## O=C(CCCN1CCC(c2ccc(Cl)cc2)CC1)c1ccc(F)cc1
[1]
  pKi: 7.59
[2]
  pKi: 7.34

## O=C(CCCN1CCC(O)(Cc2ccc(Cl)cc2)CC1)c1ccc(F)cc1
[1]
  pKi: 7.23
[2]
  pKi: 8.05

## CN(CCCC(=O)c1ccc(F)cc1)CCCC(O)c1ccc(Cl)cc1 (configuration not stated)
[1]
  pKi: 6.72
[2]
  pKi: 6.79

## O=C(CCC[n+]1ccc(-c2ccc(Cl)cc2)cc1)c1ccc(F)cc1
[1]
  pKi: < 6
[2]
  pKi: < 6

## O=C(CCCN1CCC(C(O)c2ccc(Cl)cc2)CC1)c1ccc(F)cc1 (configuration not stated)
[1]
  pKi: 6.91
[2]
  pKi: 7.11

## O=C(CCCN1CCC(CO)(c2ccc(Cl)cc2)CC1)c1ccc(F)cc1
[1]
  pKi: 7.11
[2]
  pKi: 6.96

## O=C(CCCN1CCC(CO)(c2ccc(Cl)cc2)C1)c1ccc(F)cc1 (configuration not stated)
[1]
  pKi: 7.62
[2]
  pKi: 6.78
